Patent publication US20220411367A1, “ARYLMETHYLENE HETEROCYCLIC COMPOUNDS AS KV1.3 POTASSIUM SHAKER CHANNEL BLOCKERS” (D. E. Shaw Research, LLC, priority 2019, published 2022)
Where two headings read alike, the source gives them in different places.

Assays:
[1] = target: T1, Kv1.3 potassium channel (Homo sapiens, UniProt P22001); test: Kv1.3 potassium channel blocker activity, automated whole-cell patch clamp (Patchliner); type: cell-based; settings: CHO-K1 cells stably expressing Kv1.3; whole cell current inhibition; read-out: Kvl.3 IC50
T1 construct: expressed in transfected cells
T1 sequence (P22001 whole entry): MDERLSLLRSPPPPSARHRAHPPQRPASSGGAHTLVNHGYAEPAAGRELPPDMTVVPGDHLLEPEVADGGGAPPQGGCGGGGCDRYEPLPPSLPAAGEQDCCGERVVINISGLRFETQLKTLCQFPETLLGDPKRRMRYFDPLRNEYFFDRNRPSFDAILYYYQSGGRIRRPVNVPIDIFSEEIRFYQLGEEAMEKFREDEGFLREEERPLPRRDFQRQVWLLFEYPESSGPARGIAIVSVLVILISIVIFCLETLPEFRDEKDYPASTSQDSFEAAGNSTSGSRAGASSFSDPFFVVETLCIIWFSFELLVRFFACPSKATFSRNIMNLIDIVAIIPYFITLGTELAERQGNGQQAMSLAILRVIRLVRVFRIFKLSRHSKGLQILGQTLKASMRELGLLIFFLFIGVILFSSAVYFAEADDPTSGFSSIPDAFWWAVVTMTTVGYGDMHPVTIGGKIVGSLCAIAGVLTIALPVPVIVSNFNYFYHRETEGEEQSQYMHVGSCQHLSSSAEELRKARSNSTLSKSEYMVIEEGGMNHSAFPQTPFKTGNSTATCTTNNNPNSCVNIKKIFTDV
Method: This assay is used to evaluate the disclosed compounds' activities as Kv1.3 potassium channel blockers.
CHO-K1 cells stably expressing Kv1.3 were grown in DMEM containing 10% heat-inactivated FBS, 1 mM Sodium Pyruvate, 2 mM L-Glutamine and G418 (500 μg/ml).
(§1) All compounds were dissolved in DMSO at 30 mM.
The currents were evoked by applying 100 ms depolarizing pulses from −90 mV (holding potential) to +40 mV were applied with 0.1 Hz frequency. […] 10 second breaks were used between pulse trains (see Table A below).
Data were sampled at 10 kHz without filtering. Passive leak currents were subtracted online using a P/4 procedure (HEKA Elektronik Dr. Schulze GmbH). […] Total compound incubation time before the next pulse train was not longer than 10 seconds. Peak current inhibition was observed during compound equilibration.

[2] = target: T2, hERG channel (Homo sapiens, UniProt Q12809); test: hERG electrophysiology, automated whole-cell patch clamp (Patchliner); type: cell-based; settings: CHO-K1 cells stably expressing hERG, whole cell current inhibition, read-out: hERG IC50
T2 construct: expressed in transfected cells
T2 sequence (Q12809 whole entry): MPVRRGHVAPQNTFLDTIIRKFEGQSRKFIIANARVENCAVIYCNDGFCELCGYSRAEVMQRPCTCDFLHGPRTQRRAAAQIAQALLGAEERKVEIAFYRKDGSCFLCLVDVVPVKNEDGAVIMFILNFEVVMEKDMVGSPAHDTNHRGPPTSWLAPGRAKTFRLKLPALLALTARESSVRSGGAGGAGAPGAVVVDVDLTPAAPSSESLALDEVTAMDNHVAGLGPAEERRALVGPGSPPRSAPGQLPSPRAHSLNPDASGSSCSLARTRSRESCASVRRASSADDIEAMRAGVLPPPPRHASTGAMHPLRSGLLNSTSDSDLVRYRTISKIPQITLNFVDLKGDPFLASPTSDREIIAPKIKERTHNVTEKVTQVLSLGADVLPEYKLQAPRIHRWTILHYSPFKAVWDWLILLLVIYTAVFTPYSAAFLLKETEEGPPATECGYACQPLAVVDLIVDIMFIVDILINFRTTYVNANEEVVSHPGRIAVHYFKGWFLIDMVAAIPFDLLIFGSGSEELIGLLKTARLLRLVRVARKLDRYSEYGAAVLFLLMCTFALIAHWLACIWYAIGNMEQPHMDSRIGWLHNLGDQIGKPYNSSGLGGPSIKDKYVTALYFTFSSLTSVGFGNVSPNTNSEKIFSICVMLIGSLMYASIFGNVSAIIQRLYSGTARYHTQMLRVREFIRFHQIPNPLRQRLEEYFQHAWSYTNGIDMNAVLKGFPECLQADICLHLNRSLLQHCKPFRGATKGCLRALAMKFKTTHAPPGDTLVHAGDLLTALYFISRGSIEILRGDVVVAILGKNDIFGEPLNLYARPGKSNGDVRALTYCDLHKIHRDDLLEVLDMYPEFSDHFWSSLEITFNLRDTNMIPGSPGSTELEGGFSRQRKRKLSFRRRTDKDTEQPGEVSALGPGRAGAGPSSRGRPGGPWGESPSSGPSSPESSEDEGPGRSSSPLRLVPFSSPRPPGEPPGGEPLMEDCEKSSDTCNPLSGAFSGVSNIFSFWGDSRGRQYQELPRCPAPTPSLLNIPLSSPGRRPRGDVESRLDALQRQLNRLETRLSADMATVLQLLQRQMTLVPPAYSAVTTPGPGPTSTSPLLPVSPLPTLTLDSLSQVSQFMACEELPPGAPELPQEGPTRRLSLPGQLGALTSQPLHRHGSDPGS
Method: as §1
The pulse frequency was 0.3 Hz.
Data were sampled at 10 kHz without filtering.

COC(=O)C1CC(CO)CCN1Cc1cc(Cl)c(Cl)cc1O (stereo not drawn) [Compound 1, methyl 1-[(4,5-dichloro-2-hydroxyphenyl)methyl]-4-(hydroxymethyl)piperidine-2-carboxylate] was tested, and the IC50 [1] was under 10 µM.
C[C@@H]1C[C@@H](CO)CCN1Cc1cc(Cl)c(Cl)cc1O (relative stereo) [Compound 24, 4,5-dichloro-2-(((2R,4S)-rel-4-(hydroxymethyl)-2-methylpiperidin-1-yl)methyl)phenol] was tested, and the IC50 [1] was under 10 µM.
With OCC1CCCCN1Cc1cc(Cl)c(Cl)cc1O (stereo not drawn) [Compound 34, 4,5-dichloro-2-[[2-(hydroxymethyl)piperidin-1-yl]methyl]phenol] the IC50 [1] was under 10 µM.
Work on CC(=O)N1CCN(Cc2cc(Cl)c(Cl)cc2O)CC1 [Compound 49, 1-[4-[(4,5-dichloro-2-hydroxyphenyl)methyl]piperazin-1-yl]ethan-1-one] yielded an IC50 [2] of under 30 µM and an IC50 [1] of under 10 µM.
For Oc1cc(Cl)c(Cl)cc1CN1CCC2(CC1)COC2 [Compound 51, 4,5-dichloro-2-[2-oxa-7-azaspiro [3.5]nonan-7-ylmethyl] phenol], the IC50 [2] was under 30 µM and the IC50 [1] was under 10 µM.
Oc1cc(Cl)c(Cl)cc1CN1CCC2(CCO2)CC1 [Compound 57, 4,5-dichloro-2-[1-oxa-7-azaspiro[3.5]nonan-7-ylmethyl]phenol] showed an IC50 [2] of under 30 µM and an IC50 [1] of under 10 µM.
In the case of O=C(NCC1(CO)CCN(Cc2cc(Cl)c(Cl)cc2O)CC1)C(F)(F)F [Compound 13, N-([1-[(4,5-dichloro-2-hydroxyphenyl)methyl]-4-(hydroxymethyl)piperidin-4-yl]methyl)-2,2,2-trifluoroacetamide], the IC50 [1] is reported as under 1 µM.
In the case of CC1(CO)CCN(Cc2cc(Cl)c(Cl)cc2O)CC1 [Compound 53, 4,5-dichloro-2-[[4-(hydroxymethyl)-4-methylpiperidin-1-yl]methyl] phenol], the IC50 [2] is reported as under 30 µM and the IC50 [1] is reported as under 10 µM.
With NC(=O)C1CCN(Cc2cc(Cl)c(Cl)cc2O)CC1 [Compound 62, l-(4,5-dichloro-2-hydroxybenzyl) piperidine-4-carboxamide] the IC50 [2] was under 30 µM and the IC50 [1] was under 10 µM.
For CC(C)(O)C1CCN(Cc2cc(Cl)c(Cl)cc2O)CC1 [Compound 50, 4,5-dichloro-2-[[4-(2-hydroxypropan-2-yl)piperidin-1-yl]methyl]phenol], the IC50 [2] was under 30 µM and the IC50 [1] was under 10 µM.
OC[C@@H]1CCN(Cc2cc(Cl)c(Cl)cc2O)[C@H](c2ccccc2)C1 (relative stereo) [Compound 10, 4,5-dichloro-2-(((2S,4R)-rel-4-(hydroxymethyl)-2-phenylpiperidin-1-yl)methyl)phenol] was tested, and the IC50 [1] was under 10 µM.
In the case of Cc1cc(CN2CCC(CO)CC2)c(O)cc1Cl [Compound 17, 5-chloro-2-[[4-(hydroxymethyl)piperidin-1-yl]methyl]-4-methylphenol], the IC50 [1] is reported as under 10 µM.
In the case of OCC1CN(Cc2cc(Cl)c(Cl)cc2O)CCO1 (stereo not drawn) [Compound 52, 4,5-dichloro-2-[[2-(hydroxymethyl)morpholin-4-yl]methyl]phenol], the IC50 ([2]; human, pH 7.4) is reported as 30 µM and the IC50 [1] is reported as under 10 µM.
Oc1cc(Cl)c(Cl)cc1CN1CCC(n2cnnc2)CC1 [Compound 38, 4,5-dichloro-2-[[4-(4H-1,2,4-triazol-4-yl)piperidin-1-yl]methyl]phenol] gave an IC50 [1] of under 10 µM.
OC[C@@H]1[C@H]2CN(Cc3cc(Cl)c(Cl)cc3O)C[C@@H]12 [Compound 36, 4,5-dichloro-2-(((1R,5S,6R)-6-(hydroxymethyl)-3-azabicyclo[3.1.0]hexan-3-yl)methyl)phenol] gave an IC50 [1] of under 10 µM.
Compound Oc1cc(Cl)c(Cl)cc1CN1CCC(C2COC2)CC1 [Compound 42, 4,5-dichloro-2-[[4-(oxetan-3-yl)piperidin-1-yl]methyl]phenol] has an IC50 [2] of under 30 µM and an IC50 [1] of under 10 µM.
Compound O=C(N1CCOCC1)N1CCN(Cc2cc(Cl)c(Cl)cc2O)CC1 [Compound 58, (4-(4,5-dichloro-2-hydroxybenzyl)piperazin-1-yl)(morpholino) methanone] has an IC50 [2] of under 30 µM and an IC50 [1] of under 10 µM.
OCC1CCCN(Cc2cc(Cl)c(Cl)cc2O)C1 (stereo not drawn) [Compound 45, 4,5-dichloro-2-[[3-(hydroxymethyl)piperidin-1-yl]methyl]phenol] gave an IC50 [2] of under 30 µM and an IC50 [1] of under 10 µM.
OCC1(F)CCN(Cc2cc(Cl)c(Cl)cc2O)CC1 [Compound 31, 4,5-dichloro-2-[[4-fluoro-4-(hydroxymethyl)piperidin-l-yl]methyl]phenol] gave an IC50 [1] of under 10 µM.
With O=C1CCC2(CCN1)CCN(Cc1cc(Cl)c(Cl)cc1O)CC2 [Compound 59, 3-(4,5-dichloro-2-hydroxybenzyl)-3,9-diazaspiro[5.6]dodecan-10-one] the IC50 [1] was under 10 µM.
Compound C=CC(=O)NCC1(CO)CCN(Cc2cc(Cl)c(Cl)cc2O)CC1 [Compound 7, N-([1-[(4,5-dichloro-2-hydroxyphenyl)methyl]-4-(hydroxymethyl)piperidin-4-yl]methyl)prop-2-enamide] has an IC50 [1] of under 1 µM.
In the case of Oc1cc(Cl)c(Cl)cc1CN1CCC(O)(O)CC1 [Compound 37, 1-(4,5-dichloro-2-hydroxybenzyl)piperidine-4,4-diol trifluoroacetic acid], the IC50 [1] is reported as under 10 µM.
In the case of CN(C)C(=O)C1CCN(Cc2cc(Cl)c(Cl)cc2O)CC1 [Compound 66, 1-(4,5-dichloro-2-hydroxybenzyl)-N,N-dimethylpiperidine-4-carboxamide], the IC50 [2] is reported as under 30 µM and the IC50 [1] is reported as under 10 µM.
For OC[C@@H]1CCN(Cc2cc(Cl)c(Cl)cc2O)[C@@H](c2ccccc2)C1 (relative stereo) [Compound 11, 4,5-dichloro-2-(((2R,4R)-rel-4-(hydroxymethyl)-2-phenylpiperidin-1-yl)methyl)phenol], the IC50 [1] was under 10 µM.
Oc1cc(Cl)c(Cl)cc1CN1CCC(O)CC1 [Compound 55, 1-[(4,5-dichloro-2-hydroxyphenyl)methyl] piperidin-4-ol] gave an IC50 [2] of under 30 µM and an IC50 [1] of under 10 µM.
Oc1cc(Cl)c(Cl)cc1CN1CCC(C2CCOCC2)CC1 [Compound 20, 4,5-dichloro-2-[[4-(oxan-4-yl)piperidin-1-yl]methyl]phenol] was tested, and the IC50 [2] was under 30 µM and the IC50 [1] was under 1 µM.
With CC(=O)NCC1(O)CCN(Cc2cc(Cl)c(Cl)cc2O)CC1 [Compound 8, N-([1-[(4,5-dichloro-2-hydroxyphenyl)methyl]-4-hydroxypiperidin-4-yl]methyl)acetamide] the IC50 [1] was under 10 µM.
For OCC1CN(Cc2cc(Cl)c(Cl)cc2O)C1 [Compound 32, 4,5-dichloro-2-[[3-(hydroxymethyl)azetidin-1-yl]methyl]phenol], the IC50 [2] was under 30 µM and the IC50 [1] was under 10 µM.
CC(=O)NC1(CO)CCN(Cc2cc(Cl)c(Cl)cc2O)CC1 [Compound 12, N-[1-[(4,5-dichloro-2-hydroxyphenyl)methyl]-4-(hydroxymethyl)piperidin-4-yl]acetamide] gave an IC50 [2] of over 30 µM and an IC50 [1] of under 1 µM.
CS(=O)(=O)C1CCN(Cc2cc(Cl)c(Cl)cc2O)CC1 [Compound 41, 4,5-dichloro-2-((4-(methylsulfonyl)piperidin-1-yl)methyl)phenol] showed an IC50 [1] of under 10 µM.
For OCC1CN(Cc2cc(Cl)c(Cl)cc2O)CCN1 (stereo not drawn) [Compound 47, 4,5-dichloro-2-((3-(hydroxymethyl)piperazin-1-yl)methyl)phenol], the IC50 [1] was under 10 µM.
Compound OCC1CCN(C(CO)c2cc(Cl)c(Cl)cc2O)CC1 (stereo not drawn) [Compound 15, 4,5-dichloro-2-[2-hydroxy-1-[4-(hydroxymethyl)piperidin-1-yl]ethyl]phenol] has an IC50 [1] of under 10 µM.
With OCC1CCN(Cc2cc(Cl)c(Cl)cc2O)C(CO)C1 (stereo not drawn) [Compound 2, (1-(4,5-dichloro-2-hydroxybenzyl)piperidine-2,4-diyl)dimethanol] the IC50 [1] was under 10 µM.
O=C(O)CC1CCN(Cc2cc(Cl)c(Cl)cc2O)CC1 [Compound 28, 2-(1-(4,5-dichloro-2-hydroxybenzyl)piperidin-4-yl)acetic acid] showed an IC50 [1] of under 10 µM.
Work on Oc1cc(Cl)c(Cl)cc1CN1CCC2(CC1)OCCO2 [Compound 35, 4,5-dichloro-2-[1,4-dioxa-8-azaspiro[4.5]decan-8-ylmethyl]phenol trifluoroacetic acid] yielded an IC50 [1] of under 10 µM.
O=C1CCOC12CCN(Cc1cc(Cl)c(Cl)cc1O)CC2 [Compound 33, 8-[(4,5-dichloro-2-hydroxyphenyl)methyl]-1-oxa-8-azaspiro[4.5]decan-4-one] showed an IC50 [1] of under 10 µM.
CC(C)CC(c1cc(Cl)c(Cl)cc1O)N1CCC(CO)CC1 (stereo not drawn) [Compound 23, 4,5-dichloro-2-[1-[4-(hydroxymethyl)piperidin-1-yl]-3-methylbutyl]phenol] was tested, and the IC50 [1] was under 10 µM.
For O=C(N1CCCC1)C1(CO)CCN(Cc2cc(Cl)c(Cl)cc2O)CC1 [Compound 6, 4,5-dichloro-2-[[4-(hydroxymethyl)-4-[(pyrrolidin-1-yl)carbonyl]piperidin-1-yl]methyl]phenol], the IC50 [1] was under 10 µM.
In the case of NCC(c1cc(Cl)c(Cl)cc1O)N1CCC(CO)CC1 (stereo not drawn) [Compound 4, 2-[2-amino-1-[4-(hydroxymethyl)piperidin-1-yl]ethyl]-4,5-dichlorophenol], the IC50 [1] is reported as under 10 µM.
Compound Oc1cc(Cl)c(Cl)cc1CN1CCn2cnnc2C1 [Compound 43, 4,5-dichloro-2-[5H,6H,7H,8H-[1,2,4]triazolo[4,3-a]pyrazin-7-ylmethyl]phenol] has an IC50 [1] of under 10 µM.
With Cc1cc(O)c(CN2CCC(CO)CC2)cc1C [Compound 16, 2-[[4-(hydroxymethyl)piperidin-1-yl]methyl]-4,5-dimethylphenol] the IC50 [1] was under 10 µM.
In the case of CC(c1cc(Cl)c(Cl)cc1O)N1CCC(CO)CC1 (stereo not drawn) [Compound 46, 4,5-dichloro-2-[1-[4-(hydroxymethyl)piperidin-1-yl]ethyl]phenol], the IC50 [1] is reported as under 10 µM.
